Consider 2 compounds from article PMC9944867, “Mechanistic in vitro studies indicate that the clinical drug–drug interactions between protease inhibitors and rosuvastatin are driven by inhibition of intestinal BCRP and hepatic OATP1B1 with minimal contribution from OATP1B3, NTCP and OAT3” (Pharmacology Research & Perspectives, 2023).

Where “and” joins values, the source holds several entries; their conditions need not be identical. Equal entries are not always repeated. Where two headings read alike, the source gives them in different places.

One series deals with T1, human OATP1B3 (SLCO1B3) (Homo sapiens, UniProt Q9NPD5).
T1 sequence (Q9NPD5 1-702): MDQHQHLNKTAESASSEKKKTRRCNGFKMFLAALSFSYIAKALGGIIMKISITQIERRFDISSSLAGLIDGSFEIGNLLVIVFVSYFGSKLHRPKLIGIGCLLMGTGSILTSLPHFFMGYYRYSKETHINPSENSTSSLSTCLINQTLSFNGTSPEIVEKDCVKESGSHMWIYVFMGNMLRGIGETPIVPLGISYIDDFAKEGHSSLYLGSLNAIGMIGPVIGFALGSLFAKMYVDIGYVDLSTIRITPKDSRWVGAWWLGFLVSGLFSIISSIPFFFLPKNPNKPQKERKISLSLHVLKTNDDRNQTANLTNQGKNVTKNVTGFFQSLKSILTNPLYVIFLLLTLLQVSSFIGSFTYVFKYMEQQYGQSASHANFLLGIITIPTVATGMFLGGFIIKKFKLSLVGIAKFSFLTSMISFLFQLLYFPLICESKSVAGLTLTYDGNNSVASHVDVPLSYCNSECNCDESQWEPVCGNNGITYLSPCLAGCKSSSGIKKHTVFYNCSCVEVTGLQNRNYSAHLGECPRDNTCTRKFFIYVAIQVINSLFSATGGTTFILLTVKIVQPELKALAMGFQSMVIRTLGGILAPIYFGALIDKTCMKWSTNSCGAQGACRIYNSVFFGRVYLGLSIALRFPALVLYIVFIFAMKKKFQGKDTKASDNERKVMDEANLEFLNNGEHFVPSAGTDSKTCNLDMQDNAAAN
The series can be described thus: OATP1B3 inhibition in transporter-expressing HEK293 cells, [3H]-estradiol 17β-D-glucuronide uptake (IC50 determination). To be noted: for IC50: OATP1B3-mediated transport of [3H]-estradiol 17β-D-glucuronide (0.02 μM), HEK293. The method, then: OATP1B1, OATP1B3, NTCP and vector control cell lines were cultured and subsequent transporter assays conducted as described above using the same transporter‐specific probe substrates and incubation times. For OATP1B1, the probe substrate was [^3H]‐estradiol 17β‐D‐glucuronide (0.02 μM) incubated for 2 min, with rifamycin SV (100 μM) as positive control inhibitor. For IC50 determinations, the only difference to the method performed above was that the 15‐min pre‐incubation step contained a range of six concentrations of protease inhibitor drug, and subsequent incubations were conducted with the same six concentration levels of drug rather than with a single concentration.

The next series addresses T2, human OAT3 (SLC22A8) (Homo sapiens, UniProt Q8TCC7).
T2 construct: host or cells: HEK293 TransportoCells
T2 sequence (Q8TCC7 1-542): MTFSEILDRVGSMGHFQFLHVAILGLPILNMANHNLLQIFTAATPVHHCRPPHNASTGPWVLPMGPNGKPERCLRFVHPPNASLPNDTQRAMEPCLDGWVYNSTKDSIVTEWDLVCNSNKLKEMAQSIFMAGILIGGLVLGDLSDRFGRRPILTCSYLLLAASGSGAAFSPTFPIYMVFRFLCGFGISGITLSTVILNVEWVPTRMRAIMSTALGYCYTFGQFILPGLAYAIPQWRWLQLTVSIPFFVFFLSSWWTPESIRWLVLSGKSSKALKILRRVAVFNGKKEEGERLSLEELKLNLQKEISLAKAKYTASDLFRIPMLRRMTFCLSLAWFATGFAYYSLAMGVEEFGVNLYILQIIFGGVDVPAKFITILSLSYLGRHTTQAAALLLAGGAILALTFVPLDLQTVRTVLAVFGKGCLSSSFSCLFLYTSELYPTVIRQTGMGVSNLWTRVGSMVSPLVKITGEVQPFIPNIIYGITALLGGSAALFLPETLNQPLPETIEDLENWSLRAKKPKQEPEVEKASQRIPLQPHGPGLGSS
The series is described as follows: OAT3 single concentration inhibition screen in HEK293 cells. Particulars: ≥10x unbound [Cmax]: atazanavir 15 μM, darunavir 10 μM, lopinavir 3 μM, ritonavir 0.1 μM; probe 1 μM. The class given is cell-based.

The conditions of series [1]: cited from earlier work; for Cmax: read-out: [Cmax] mean steady-state maximum plasma concentration, total drug; for fu fraction unbound: in plasma, ref drug label accessed via Drugs@FDA database.
Series [2] concerns intestinal BCRP and hepatic OATP1B1, OATP1B3, NTCP.
The test system is the same in series [3]. Particulars: rosuvastatin; ref Elsby et al.[13]; cited from earlier work.
The target of the next series is T3, BCRP (Homo sapiens, UniProt Q9UNQ0).
T3 sequence (Q9UNQ0 1-655): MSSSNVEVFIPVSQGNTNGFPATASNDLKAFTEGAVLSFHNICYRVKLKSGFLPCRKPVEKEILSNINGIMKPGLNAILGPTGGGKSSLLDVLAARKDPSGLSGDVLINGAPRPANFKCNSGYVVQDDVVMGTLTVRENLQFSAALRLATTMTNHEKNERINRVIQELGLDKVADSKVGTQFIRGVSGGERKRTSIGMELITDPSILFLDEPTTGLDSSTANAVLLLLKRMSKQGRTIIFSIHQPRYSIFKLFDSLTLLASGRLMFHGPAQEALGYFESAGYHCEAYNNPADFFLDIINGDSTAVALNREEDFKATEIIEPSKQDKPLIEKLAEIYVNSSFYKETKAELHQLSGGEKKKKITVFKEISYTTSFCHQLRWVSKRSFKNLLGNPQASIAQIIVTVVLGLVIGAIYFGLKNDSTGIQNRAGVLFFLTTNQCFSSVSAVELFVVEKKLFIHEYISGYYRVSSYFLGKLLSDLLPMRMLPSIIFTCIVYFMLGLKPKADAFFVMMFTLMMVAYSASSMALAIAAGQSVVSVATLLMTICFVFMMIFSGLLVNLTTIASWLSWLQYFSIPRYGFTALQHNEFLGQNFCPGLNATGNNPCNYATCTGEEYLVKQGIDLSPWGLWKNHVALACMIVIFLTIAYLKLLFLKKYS
To be noted: probe substrate pheophorbide A; ref Weiss et al.[15]; cited from earlier work.

The test system of a further series is OATP1B1. Particulars: probe substrate atorvastatin; ref Karlgren et al.[31]; cited from earlier work.
The test system of series [4] is intestinal BCRP and hepatic OATP1B1, OATP1B3, NTCP. The series is described as follows: Mechanistic static prediction of rosuvastatin AUC change (AUCR). To be noted: predicted AUCR 1.01.
The mark [5] stands for this setting: IC50, determined values from different occasions (OATP1B3), single occasion.
The mark [6] stands for this setting: IC50 mean (OATP1B3), mean (±SD) of three occasions.

In the case of `Cc1cccc(C)c1OCC(=O)N[C@@H](Cc1ccccc1)[C@@H](O)C[C@H](Cc1ccccc1)NC(=O)[C@H](C(C)C)N1CCCNC1=O` [lopinavir], the half-inhibitory concentration (IC50) was 5.14 µM and 5.04 µM and 4.95 µM against human OATP1B3 (SLCO1B3) (setting [5]); 5.04 ± 0.095 µM at human OATP1B3 (SLCO1B3) (setting [6]). Further, the “Inhibition of OAT3-mediated [3H]-estrone 3-sulfate transport, single concentration screen” value on human OAT3 (SLC22A8) is on record as “neither atazanavir, darunavir, lopinavir nor ritonavir inhibited OAT3 transport”. Moreover, in series [1] (400 mg, ref Elsby et al.[13]), the Cmax is 14.6 µM. For the same compound, the fu fraction unbound in series [1] is reported as 0.02.
As for `COC(=O)N[C@H](C(=O)N[C@@H](Cc1ccccc1)[C@@H](O)CN(Cc1ccc(-c2ccccn2)cc1)NC(=O)[C@@H](NC(=O)OC)C(C)(C)C)C(C)(C)C` [atazanavir], the 50% inhibitory concentration (IC50) was 1.75 µM and 2.41 µM and 1.43 µM at human OATP1B3 (SLCO1B3) (setting [5]); 1.86 µM on human OATP1B3 (SLCO1B3) (setting [6]). Besides, the “Mean OATP1B3 IC50 (Ki), fold lower than previously published” value at human OATP1B3 (SLCO1B3) (against value with atorvastatin as probe substrate [33]) was found to be 3.9 fold. Further, at human OAT3 (SLC22A8), the “Inhibition of OAT3-mediated [3H]-estrone 3-sulfate transport, single concentration screen” value was “neither atazanavir, darunavir, lopinavir nor ritonavir inhibited OAT3 transport”. In addition, the inhibition in series [2] was ~80% and 75%. For the same compound, in series [3], the “Predicted AUCR, inhibition of BCRP and OATP1B1 alone (earlier model)” value is on record as 2.13. Moreover, the Cmax in series [1] (clinical dose of Table 5, ref Elsby et al.[1]) was 8.68 µM. Besides, the fu fraction unbound in series [1] is 0.14. For the same compound, the “Published IC50/Ki (BCRP)” value at BCRP was 69.1 (pheophorbide A) μM. Moreover, the “Published IC50/Ki (OATP1B1)” value in the series with OATP1B1 is 0.91 (atorvastatin) μM. Also, the “Reduction in NTCP function reflected by predicted AUCR” value in series [4] was 4%.

The IC50 is the concentration that inhibits the measured activity by half. High values mean weaker potency in that assay, low ones greater potency in that assay. As usually defined, the inhibition is the drop in the measured response relative to a control, in per cent. Read a high inhibition as strong suppression.
